Assay results as given in patent publication US20190133997A1, “ARTEMISININ ANALOG, AND USE, METHOD, AND COMPOSITION FOR PROMOTING LIPID CATABOLISM AND IMPROVING SUGAR METABOLISM” (FUDAN UNIVERSITY, priority 2016, published 2019).

Tested on: BMP4-directed C3H10T1/2
Assay: Artemisinin and analogues on BMP4-directed C3H10T1/2 (morphology, Western blot)
Assay type: cell-based
Conditions: for cell morphology of C3H10T1/2: concentration shown in FIG. 8, from Day 0 of differentiation, vs control
Method: 4.3.1 Culture and Differentiation of C3H10T1/2 According to Method 2.4.1.
Artemisinin, artesunate and dihydroartemisinin were stored in DMSO at a storage concentration of 10 mMol/L. The concentration shown in FIG. 8 was added on Day 0 of differentiation. Fresh medium was replaced every two days, and the corresponding concentrations of compounds were added until the cells differentiated to mature.
The method for extracting C3H10T1/2 cell total protein was the same as 2.4.3;
Western blot method and catalog number of antibody was the same as 2.4.4.

SMILES	cell morphology of C3H10T1/2	expression of brown fat-related genes (C3H10T1/2)	expression level of UCP1 (dihydroartemisinin 1, 2.5, 5, 7.5 Mol/L, Western blot)	expression level of PGC1α (dihydroartemisinin, Western blot)
C[C@H]1[C@H](OC(=O)CCC(=O)O)O[C@@H]2O[C@@]3(C)CC[C@H]4[C@H](C)CC[C@@H]1[C@@]24OO3 [artesunate]	exhibited similar morphological characteristics	–	–	–
C[C@H]1[C@@H](O)O[C@@H]2O[C@@]3(C)CC[C@H]4[C@H](C)CC[C@@H]1[C@@]24OO3 [dihydroartemisinin]	exhibited similar morphological characteristics	up-regulated	gradually increase with the increase of the concentration of dihydroartemisinin	gradually increase with the increase of the concentration of dihydroartemisinin
C[C@@H]1CC[C@H]2[C@@H](C)C(=O)O[C@@H]3O[C@@]4(C)CC[C@@H]1[C@]32OO4 [artemisinin]	exhibited similar morphological characteristics	–	–	–
